Assay results taken from the supplement of paper PMC11616607.

Experiments:
Assay in all cases: drug sensitivity score (DSS) from 5-point dose-response viability curve (DSS (area-under-curve based score)); higher = more sensitive (stronger growth inhibition or killing); extreme values may be limits of the assay
Conditions in all cases: exposure time: 72 h; concentration range: 5 concentrations over 10,000-fold range
[1] = tested on: OVCAR8
Method in brief: (§1)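 Viability of ovarian cancer and normal ovarian cell lines was read by CellTiter-Glo luminescence after 3 days at 37°C and 5% CO2 in 384-well plates holding 1,500 cells per well. Drugs had been dispensed in DMSO or water with an Echo 550 at five concentrations over a 10,000-fold range. Using Breeze software, a drug sensitivity score was assigned per cell line and drug, higher scores meaning more sensitive, and zero means no response.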

[2] = tested on: HOSE2C
Method in brief: as §1

[3] = tested on: OVCAR4
Method in brief: as §1

[4] = tested on: CAOV3
Method in brief: as §1

[5] = tested on: OVCAR5
Method in brief: as §1

[6] = tested on: Ovsaho
Method in brief: as §1

[7] = tested on: HOSE1C
Method in brief: as §1

[8] = tested on: COV318
Method in brief: as §1

[9] = tested on: COV362
Method in brief: as §1

[10] = tested on: JHOS2
Method in brief: as §1

[11] = tested on: Kuramochi
Method in brief: as §1

[12] = tested on: OV90
Method in brief: as §1

SMILES	drug sensitivity score [1]	drug sensitivity score [2]	drug sensitivity score [3]	drug sensitivity score [4]	drug sensitivity score [5]	drug sensitivity score [6]	drug sensitivity score [7]	drug sensitivity score [8]	drug sensitivity score [9]	drug sensitivity score [10]	drug sensitivity score [11]	drug sensitivity score [12]
Cc1sc2c(c1C)C(c1ccc(Cl)cc1)=N[C@@H](CC(=O)Nc1ccc(OCCOCCOCCOCCNc3cccc4c3C(=O)N(C3CCC(=O)NC3=O)C4=O)cc1)c1nnc(C)n1-2 (stereo not given in full) [ARV-825]	15.5	7.9	8.2	5.4	7.9	10	17.3	5.2	1.5	4.6	9.9	6.7
COc1cc(N2CCC(N3CCN(C)CC3)CC2)ccc1Nc1ncnc(Nc2ccccc2S(=O)(=O)C(C)C)n1 [ASP3026]	4.3	6.4	4.3	6.6	8.2	4.7	3.4	2.9	3.3	4.1	4	5.2
O=C(NC1CCNCC1)c1n[nH]cc1NC(=O)c1c(Cl)cccc1Cl [AT7519]	15.5	8	9.3	13.9	13.5	8.9	16.6	6.2	12	18	9.3	14.2
O=C(Nc1c[nH]nc1-c1nc2ccc(CN3CCOCC3)cc2[nH]1)NC1CC1 [AT9283]	3.1	7.4	6.8	16.9	4.6	5.2	2.4	1.1	4.4	3.5	3.5	2.6
CC[C@H](CC#N)OC(=O)N[C@@H](C)c1cccc(NC(=O)Nc2ccc(-c3cnco3)c(OC)c2)c1 [AVN944]	11.1	15.8	7	10.9	13.6	9.5	25	9.4	3.3	9.6	8	12.7
COc1cc(N2CCN(C)CC2)ccc1Nc1nccc(-c2cn(C)c3cnccc23)n1 [AZ191]	2.2	1.9	0.6	0	2	1.6	1	4.1	2.2	4.4	1.4	5.9
COc1cc(OC2CCN(C)CC2)ccc1Nc1ncc2c(n1)n(C1CCCC1)c(=O)n2C [AZ 3146]	4.6	2.4	1.5	3.6	6.2	4.7	0.9	2.7	0.8	2.3	3.9	4.8
CN(C)CCCOc1ccc(-c2ccc3ncc4c(c3c2)n(C2CCOCC2)c(=O)n4C)cn1 [AZD0156]	0	0	0	1.2	1.4	3.2	1	0	0	0	0.2	1.1
N[C@@H]1CCCN(c2c(/C=C3\SC(=O)NC3=O)cccc2-c2ccccc2)C1 [AZD1208]	0.1	0	0	0	1.4	3.5	0.2	1.1	0	0.3	1.7	0.3
Cc1cc(Nc2nc(N[C@@H](C)c3ncc(F)cn3)ncc2Cl)[nH]n1 [AZD1480]	0	2.8	0.5	0	0.5	0.7	0	0	0	0	0	0
COc1cc2ncnc(Nc3cccc(Cl)c3F)c2cc1OC(=O)N1CCN(C)C[C@H]1C [AZD3759]	0	0	0	3.5	0.2	0	0	0	0	0.2	0	0
Cc1[nH]nc(C(F)(F)F)c1Cc1sc2c(c1C(=O)N1C[C@](C)(O)CO1)c(=O)n(C)c(=O)n2C(C)C [AZD3965]	0	0	0	0	0	0.8	0	0	0	0	0	4.2
COc1cc(CCc2cc(NC(=O)c3ccc(N4CC(C)NC(C)C4)cc3)n[nH]2)cc(OC)c1 (stereo not given) [AZD4547]	0	5.8	0	0	0	0	0.8	0	0	0	0	0
CN(C)C(=O)c1ccc(S(=O)(=O)c2ccc(NC(=O)[C@@](C)(O)C(F)(F)F)c(Cl)c2)cc1 [AZD7545]	2.2	0.4	0	1.1	0	0	0	0	0	0	0	0
NC(=O)Nc1cc(-c2cccc(F)c2)sc1C(=O)N[C@H]1CCCNC1 [AZD7762]	5.2	7.8	7	6.1	6.6	4	7.4	5	7	1.9	4.2	6.4
